This is an account of results in patent US20070213346A1, “Substituted 4-Alkyl-And 4-Alkanoyl-Piperidine Derivatives And Their Use As Neurokinin Antagonists” (priority 2004, published 2007).

Type in all cases: cell-based
Assay [1] has as its target T1, NK3 (Homo sapiens, UniProt P29371).
T1 sequence (P29371 1-465): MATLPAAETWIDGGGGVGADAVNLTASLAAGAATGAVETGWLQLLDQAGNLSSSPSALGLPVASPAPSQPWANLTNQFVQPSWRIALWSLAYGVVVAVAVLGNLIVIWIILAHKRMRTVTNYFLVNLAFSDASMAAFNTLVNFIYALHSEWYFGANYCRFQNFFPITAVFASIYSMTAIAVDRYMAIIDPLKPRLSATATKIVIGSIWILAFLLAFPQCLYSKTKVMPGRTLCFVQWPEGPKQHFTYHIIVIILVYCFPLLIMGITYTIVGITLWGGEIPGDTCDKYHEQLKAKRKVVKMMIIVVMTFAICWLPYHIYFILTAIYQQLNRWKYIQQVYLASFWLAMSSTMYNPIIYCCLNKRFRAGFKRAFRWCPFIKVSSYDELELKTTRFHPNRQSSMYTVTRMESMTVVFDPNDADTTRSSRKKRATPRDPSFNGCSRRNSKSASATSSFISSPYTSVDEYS
Description: Signal transduction (ST), intracellular Ca++ FLIPR, NK3. The settings on record: antagonist, Ca++ transient peak, read-out: NK3 pIC50 (converted). How it is done:
[The source words this procedure for another target and reports this target under the same test.] (§1) This test evaluates in vitro functional NK1 antagonistic activity. For the measurements of intracellular Ca^++ concentrations the cells were grown on 96-well (black wall/transparent bottom) plates from Costar for 2 days until they reached confluence. The cells were loaded with 2 μM Fluo3 in DMEM containing 0.1% BSA and 2.5 mM probenecid for 1 h at 37° C. They were washed 3× with a Krebs buffer (140 mM NaCl, 1 mM MgCl2x6H2O, 5 mM KCl, 10 mM glucose, 5 mM HEPES; 1.25 mM CaCl2; pH 7.4) containing 2.5 mM probenecid and 0.1% BSA (Ca^++-buffer). The cells were preincubated with a concentration range of antagonists for 20 min at RT and Ca^++-signals after addition of the agonists were measured in a Fluorescence Image Plate Reader (FLIPR from Molecular Devices, Crawley, England). The peak of the Ca^++-transient was considered as the relevant signal and the mean values of corresponding wells were analysed as described below.
(§2) The sigmoidal dose response curves were analysed by computerised curve-fitting, using the GraphPad program. The EC50-value of a compound is the effective dose showing 50% of maximal effect. For mean curves the response to the agonist with the highest potency was normalised to 100%. For antagonist responses the IC50-value was calculated using non-linear regression.
(§3) The last columns indicates—without being limited thereto—for which use the compounds might be most suitable. Of course, since for some neurokinin receptors no data was determined, it is obvious that these compounds might be attributed to another suitable use.

Assay [2] concerns the target NK1 (Homo sapiens, UniProt P25103). Description: Signal transduction (ST), intracellular Ca++ FLIPR, NK1. The note with it: antagonist, Ca++ transient peak, read-out: NK1 pIC50 (converted). Here is the method: as §1
The sigmoidal dose response curves were analysed by computerised curve-fitting, using the GraphPad program. The EC50-value of a compound is the effective dose showing 50% of maximal effect. For mean curves the response to the agonist with the highest potency was normalised to 100%. For antagonist responses the IC50-value was calculated using non-linear regression. […]

Assay [3] concerns the target T2, NK2 (Homo sapiens, UniProt P21452).
T2 sequence (P21452 1-398): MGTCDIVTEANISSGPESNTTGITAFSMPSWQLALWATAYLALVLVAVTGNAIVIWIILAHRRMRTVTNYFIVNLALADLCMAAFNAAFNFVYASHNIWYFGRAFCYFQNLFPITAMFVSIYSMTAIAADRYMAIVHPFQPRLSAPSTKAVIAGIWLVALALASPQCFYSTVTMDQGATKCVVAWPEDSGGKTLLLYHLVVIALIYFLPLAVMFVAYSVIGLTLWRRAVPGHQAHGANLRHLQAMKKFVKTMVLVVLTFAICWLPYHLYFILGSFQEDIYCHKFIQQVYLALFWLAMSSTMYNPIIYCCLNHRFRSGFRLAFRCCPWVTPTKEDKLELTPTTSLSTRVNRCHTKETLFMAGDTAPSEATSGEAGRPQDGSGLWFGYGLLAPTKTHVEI
Description: Signal transduction (ST), intracellular Ca++ FLIPR, NK2. The note with it: antagonist, Ca++ transient peak, read-out: NK2 pIC50 (converted). Here is the method: [The source words this procedure for another target and reports this target under the same test.] as §1, §2, §3

Each structure is given as a SMILES string.

NK1, sequence (P25103 whole entry): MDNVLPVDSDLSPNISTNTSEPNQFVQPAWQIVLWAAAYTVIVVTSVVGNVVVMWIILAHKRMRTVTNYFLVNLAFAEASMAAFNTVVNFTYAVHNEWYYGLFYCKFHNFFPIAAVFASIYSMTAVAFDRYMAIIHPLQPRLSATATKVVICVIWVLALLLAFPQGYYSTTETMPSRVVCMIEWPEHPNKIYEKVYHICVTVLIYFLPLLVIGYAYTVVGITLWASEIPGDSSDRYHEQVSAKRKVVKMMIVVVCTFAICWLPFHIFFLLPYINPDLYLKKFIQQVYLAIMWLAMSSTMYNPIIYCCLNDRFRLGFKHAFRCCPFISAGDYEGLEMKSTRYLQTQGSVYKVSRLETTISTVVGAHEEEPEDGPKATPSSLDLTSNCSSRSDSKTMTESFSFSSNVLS

Consider `O=C(c1cccs1)N1CCC(N2CCN(C[C@H]3CCN(C(=O)c4cc(C(F)(F)F)cc(C(F)(F)F)c4)[C@H](Cc4ccccc4)C3)CC2)CC1` (relative stereo) [Compound 37], for which the IC50 in assay [1] is 7.08 µM; in assay [2] it was 0.275 µM; in assay [3] it was 8.91 µM.

On to `O=C(c1ccoc1)N1CCC(N2CCN(CC3CCN(C(=O)c4cc(C(F)(F)F)cc(C(F)(F)F)c4)C(Cc4ccccc4)C3)CC2)C1` (centres unmarked) [Compound 11], for which the IC50 in assay [1] was roughly 7.94 µM; in assay [2], 0.0501 µM; in assay [3], 7.41 µM.

For the compound `O=C(C1CC1)N1CCC(N2CCN(CC3CCN(C(=O)c4cc(C(F)(F)F)cc(C(F)(F)F)c4)C(Cc4ccccc4)C3)CC2)CC1` (centres unmarked) [Compound 15], the IC50 in assay [1] was roughly 7.76 µM; in assay [2], 0.191 µM; in assay [3], roughly 3.16 µM.

On to `O=C(c1cc(C(F)(F)F)cc(C(F)(F)F)c1)N1CCC(CN2CCN(C3CCN(c4ncccn4)CC3)CC2)CC1Cc1ccccc1` (centres unmarked) [Compound 17], for which the IC50 is 5.25 µM in assay [1], 0.0851 µM in assay [2] and 7.24 µM in assay [3].

For `Cc1ccc(N2CCC(N3CCN(CC4CCN(C(=O)c5cc(C(F)(F)F)cc(C(F)(F)F)c5)C(Cc5ccccc5)C4)CC3)CC2)nn1` (centres unmarked) [Compound 18], the IC50 in assay [1] is greater than 10 µM; in assay [2], 0.229 µM; in assay [3], greater than 10 µM.

Turning to `O=C(c1cc(C(F)(F)F)cc(C(F)(F)F)c1)N1CCC(CN2CCN(C3CCN(c4cnccn4)CC3)CC2)CC1Cc1ccccc1` (centres unmarked) [Compound 19], the IC50 is 7.94 µM in assay [1], 0.288 µM in assay [2] and greater than 10 µM in assay [3].

Regarding `Cn1c(Cl)cnc1CN1CCC(N2CCN(CC3CCN(C(=O)c4cc(C(F)(F)F)cc(C(F)(F)F)c4)C(Cc4ccccc4)C3)CC2)CC1` (centres unmarked) [Compound 20], the IC50 in assay [1] was greater than 10 µM; in assay [2], 0.0933 µM; in assay [3] it was greater than 10 µM.

Turning to `O=C(c1cccnc1)N1CCC(N2CCN(C[C@H]3CCN(C(=O)c4cc(C(F)(F)F)cc(C(F)(F)F)c4)[C@H](Cc4ccccc4)C3)CC2)CC1` [Compound 48], the IC50 was 0.0257 µM in assay [2] and greater than 10 µM in assay [3].

Consider `COc1cccc(CC(=O)N2CCC(N3CCN(CC4CCN(C(=O)c5cc(C(F)(F)F)cc(C(F)(F)F)c5)C(Cc5ccccc5)C4)CC3)CC2)c1` (centres unmarked) [Compound 52], for which the IC50 in assay [1] was roughly 9.77 µM; in assay [2], 0.316 µM; in assay [3] it was 2.34 µM.

`O=C(C1CC1)N1CCC(N2CCN(C(=O)[C@H]3CCN(C(=O)c4cc(C(F)(F)F)cc(C(F)(F)F)c4)[C@H](Cc4ccccc4)C3)CC2)CC1` [Compound 56]: the IC50 in assay [1] was 0.692 µM; in assay [2], 0.0123 µM; in assay [3] it was 4.68 µM.

As to `O=C(c1cc(C(F)(F)F)cc(C(F)(F)F)c1)N1CCC(CN2CCN(C3CCNC3)CC2)CC1Cc1ccccc1` (centres unmarked) [Compound 60], the IC50 in assay [1] is greater than 10 µM; in assay [2], 0.182 µM; in assay [3], greater than 10 µM.

With `O=C(C1CC1)N1CCC(N2CCN(C[C@H]3CCN(C(=O)c4cc(C(F)(F)F)cc(C(F)(F)F)c4)[C@H](Cc4ccccc4)C3)CC2)C1` (some centres unmarked) [Compound 61], the IC50 in assay [1] is greater than 10 µM; in assay [2], 0.0741 µM; in assay [3] it was greater than 10 µM.

In the case of `O=C(c1ccsc1)N1CCC(N2CCN(C[C@H]3CCN(C(=O)c4cc(C(F)(F)F)cc(C(F)(F)F)c4)[C@H](Cc4ccccc4)C3)CC2)C1` (some centres unmarked) [Compound 62], the IC50 in assay [1] is greater than 10 µM; in assay [2] it was 0.1 µM; in assay [3] it was 7.24 µM.

Take `Cc1nnsc1C(=O)N1CCC(N2CCN(C[C@H]3CCN(C(=O)c4cc(C(F)(F)F)cc(C(F)(F)F)c4)[C@H](Cc4ccccc4)C3)CC2)C1` (some centres unmarked) [Compound 63]: the IC50 in assay [1] is greater than 10 µM; in assay [2], 0.0708 µM; in assay [3], greater than 10 µM.

Turning to `O=C(c1ccccc1)N1CCC(N2CCN(C[C@H]3CCN(C(=O)c4cc(C(F)(F)F)cc(C(F)(F)F)c4)[C@H](Cc4ccccc4)C3)CC2)C1` (some centres unmarked) [Compound 64], the IC50 in assay [1] is greater than 10 µM; in assay [2], 0.117 µM; in assay [3], greater than 10 µM.

As for `O=C(c1cccnc1)N1CCC(N2CCN(C[C@H]3CCN(C(=O)c4cc(C(F)(F)F)cc(C(F)(F)F)c4)[C@H](Cc4ccccc4)C3)CC2)C1` (some centres unmarked) [Compound 65], the IC50 in assay [1] is greater than 10 µM; in assay [2], 0.105 µM; in assay [3] it was greater than 10 µM.

`O=C(c1cc(C(F)(F)F)cc(C(F)(F)F)c1)N1CCC(O)(CN2CCN(C3CCNC3)CC2)CC1Cc1ccccc1` (centres unmarked) [Compound 76]: the IC50 was greater than 10 µM in assay [1], 0.148 µM in assay [2] and greater than 10 µM in assay [3].

`O=C(C1CC1)N1CCC(N2CCN(CC3(O)CCN(C(=O)c4cc(C(F)(F)F)cc(C(F)(F)F)c4)C(Cc4ccccc4)C3)CC2)C1` (centres unmarked) [Compound 77]: the IC50 in assay [1] was 2.88 µM; in assay [2], 0.0427 µM; in assay [3] it was 7.94 µM.

`O=C(c1ccoc1)N1CCC(N2CCN(CC3(O)CCN(C(=O)c4cc(C(F)(F)F)cc(C(F)(F)F)c4)C(Cc4ccccc4)C3)CC2)C1` (centres unmarked) [Compound 78]: the IC50 in assay [1] is 2.51 µM; in assay [2] it was 0.0363 µM; in assay [3], 8.91 µM.

Turning to `O=C(c1ccccc1)N1CCC(N2CCN(CC3(O)CCN(C(=O)c4cc(C(F)(F)F)cc(C(F)(F)F)c4)C(Cc4ccccc4)C3)CC2)C1` (centres unmarked) [Compound 79], the figures for the IC50 in assay [1], in assay [2] and in assay [3] were 7.24 µM, 0.0316 µM and 9.12 µM, respectively.

Consider `O=C(c1cccnc1)N1CCC(N2CCN(CC3(O)CCN(C(=O)c4cc(C(F)(F)F)cc(C(F)(F)F)c4)C(Cc4ccccc4)C3)CC2)C1` (centres unmarked) [Compound 80], for which the IC50 was greater than 10 µM in assay [1], 0.0302 µM in assay [2] and 8.13 µM in assay [3].

Regarding `O=C(C1CCOC1)N1CCC(N2CCN(C(=O)[C@H]3CCN(C(=O)c4cc(C(F)(F)F)cc(C(F)(F)F)c4)[C@H](Cc4ccccc4)C3)CC2)CC1` (some centres unmarked) [Compound 92], the results for the IC50 in assay [1], in assay [2] and in assay [3] were 0.871 µM, 0.024 µM and 6.76 µM, respectively.

As for `Cc1nnsc1C(=O)N1CCC(N2CCN(CC3(O)CCN(C(=O)c4cc(C(F)(F)F)cc(C(F)(F)F)c4)C(Cc4ccccc4)C3)CC2)C1` (centres unmarked) [Compound 93], the IC50 was 4.27 µM in assay [1], 0.0398 µM in assay [2] and 7.76 µM in assay [3].
